Test results from article PMC10216581, “Homogeneous, Synthetic, Non-Saccharide Glycosaminoglycan Mimetics as Potent Inhibitors of Human Cathepsin G” (Biomolecules, 2023).
Entries after “also recorded” stand apart in the source; their conditions may differ. Marks after values point to notes of the source that are not given here.

Assays:
Human CatG = target: T1, Human CatG (Homo sapiens, UniProt P08311); assay: Salt dependence of CatG inhibition by NSGM 25 (ionic/nonionic binding energy); type: biochemical
T1 construct: purchased Elastin Products Company (Owensville, MO, USA)
T1 sequence (P08311 21-255): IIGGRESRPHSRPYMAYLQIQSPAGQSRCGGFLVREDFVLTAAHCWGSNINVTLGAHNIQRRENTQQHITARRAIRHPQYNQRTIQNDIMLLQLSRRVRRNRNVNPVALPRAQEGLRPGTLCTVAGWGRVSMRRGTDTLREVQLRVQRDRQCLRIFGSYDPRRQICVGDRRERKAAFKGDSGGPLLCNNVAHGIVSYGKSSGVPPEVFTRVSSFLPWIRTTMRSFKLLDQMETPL
Method: Each KI value was calculated from the corresponding IC50 using the Cheng–Prusoff equation [43]. A double-log plot of the KI against Na^+ concentration was prepared and analyzed using the equation log KI=log KI,NONIONIC+ZψlogNa^+ . Here, the slope corresponds to the number of ion-pair interactions (Z) and the counterions released per negative charge upon ion binding (ψ = 0.8), while the intercept corresponds to the nonionic affinity (KI,NONIONIC). The contributions of ionic and nonionic binding energies to the interactions were obtained from the slope and intercept of the plot in Excel.
A fundamental point being advanced in NSGM-based mimicry is the presumed increase in hydrophobic forces contributing to binding affinity. As is well-recognized, heparin and other GAGs utilize primarily electrostatic forces in binding to proteins. […] The resolution of overall binding energy into ionic and nonionic contributions is typically achieved by performing affinity measurements as a function of the ionic strength of the buffer. According to the protein–polyelectrolyte theory, the two contributions can be resolved from a double-log plot of binding affinity against the Na^+ concentration, as defined by the equation log KI = log KI,NONIONIC + Zψ × log [Na^+], where Z represents the number of salt interactions, and ψ is the proportion of Na^+ released per anion upon ligand binding and is equal to 0.8 for heparin [55].
Figure 6 Salt dependence of CatG inhibition by NSGM 25. (A) Salt-dependent direct inhibition of CatG by NSGM 25. Data were obtained using substrate S-7388 in a chromogenic substrate hydrolysis assay. Solid lines represent sigmoidal dose–response analysis (Equation (1)) of the data to obtain IC50, ΔY%, and HS. Errors represent ± 1 S.E. (B) A double-log plot of the KI calculated using Cheng–Rusoff equation for uncompetitive inhibition against the concentration of salt.
The measured IC50s of our allosteric inhibitors are distinct from inhibition constants KI, which are thermodynamic constants. Cheng and Prusoff provided a mathematical foundation for the transformation of IC50s into KIs for uncompetitive inhibitors. In their formulation, KI is equal to IC50 × [S]/(KM + [S]), which is directly applicable to our study. Thus, it becomes possible to utilize the linear double-log analysis described above for our NSGM 25, which is an uncompetitive inhibitor. […] Linear regression yielded a slope of 2.94 and an intercept of −4.32 (Table 5). Whereas the former corresponds to an ionic binding energy of […] at 37 °C and 100 mM salt, the latter yields a nonionic binding energy of 6.12 kcal/mol. […] Such important roles of two forces have not been observed earlier. More importantly, the higher nonionic component bodes well for the discovery of second-generation inhibitors with higher selectivity.

human plasma = assay: Activated partial thromboplastin time (aPTT) clotting assay; type: biochemical
Method: The impacts of NSGM 25 on activated partial thromboplastin time (aPTT) and the prothrombin time (PT) of human plasma were measured employing a standard one-stage recalcification assay at 37 °C, as previously reported. CaCl2 and thromboplastin-D were used to initiate clotting in aPTT and PT assays, respectively, in the absence and presence of NSGM 25, and the time to clot was recorded accordingly.

factor Xa = test system: factor Xa; design: method as in PMID 9790687; conditions: previous study; read-out: inhibitory potency; cited from earlier work
factor XIa = test system: factor XIa; design: method as in PMID 9790687; conditions: previous study; read-out: inhibitory potency; cited from earlier work
factor IXa = test system: factor IXa; design: method as in PMID 9790687; conditions: previous study; read-out: inhibitory potency; cited from earlier work
factor XIIa = test system: factor XIIa; design: method as in PMID 9790687; conditions: previous study; read-out: inhibitory potency; cited from earlier work
[1] = test system: human neutrophil elastase (HNE); design: method as in PMID 23735578; conditions: previous studies; cited from earlier work
[2] = linear regression of log KI versus log[Na+]

With `O=c1c(OS(=O)(=O)O)c(-c2ccc(OS(=O)(=O)O)c(OS(=O)(=O)O)c2)oc2cc(OS(=O)(=O)O)cc(OCc3ccc(COc4cc(OS(=O)(=O)O)cc5oc(-c6ccc(OS(=O)(=O)O)c(OS(=O)(=O)O)c6)c(OS(=O)(=O)O)c(=O)c45)cc3)c12` [NSGM 25] the HS (Human CatG; 50 mM NaCl) was 1.3 ± 0.4, the IC50 (Human CatG; 50 mM NaCl) was 43 ± 10 nM and the ΔY (Human CatG; 50 mM NaCl) was 87.7 ± 7.3 ^b %. The IC50 (Human CatG; 50 mM NaCl, pH 7.4, 37 °C) was 42.7 ± 10 nM, the Ki (Human CatG; 50 mM NaCl, calculated from IC50 with Cheng-Prusoff equation (uncompetitive)) was 10.9 ± 3.9 nM and the HS (Human CatG; 100 mM NaCl) was 0.7 ± 0.1. The IC50 (Human CatG; 100 mM NaCl, pH 7.4, 37 °C) was 52.6 ± 12.2 nM, the Ki (Human CatG; 100 mM NaCl, calculated from IC50 with Cheng-Prusoff equation) was 19.2 ± 5.3 nM and the HS (Human CatG; 150 mM NaCl) was 1.6 ± 0.3. The ΔY (Human CatG; 150 mM NaCl) was 74.4 ± 2.9%, the IC50 (Human CatG; 150 mM NaCl, pH 7.4, 37 °C) was 319 ± 44.5 nM and the Ki (Human CatG; 150 mM NaCl, calculated from IC50 with Cheng-Prusoff equation) was 148 ± 54 nM. The HS (Human CatG; 200 mM NaCl) was 2.0 ± 0.5, the ΔY (Human CatG; 200 mM NaCl) was 73.2 ± 4.9% and the IC50 (Human CatG; 200 mM NaCl, pH 7.4, 37 °C) was 3450 ± 517 nM. For the same molecule, the Ki (Human CatG; 200 mM NaCl, calculated from IC50 with Cheng-Prusoff equation) was 1670 ± 480 nM, the ionic binding energy (Human CatG; 37 °C and 100 mM salt) was 4.88 kcal/mol and the “loss in inhibition potency” value (Human CatG; NaCl increased from 50 mM to 200 mM) was ~ 80 fold. The “ΔGNON-IONIC (nonionic binding energy)” value (Human CatG; from intercept of double-log plot) was 6.12 kcal/mol, the Intercept (Human CatG; [2]) was −4.32 and the Slope (Human CatG; [2]) was 2.94. The ΔGIONIC (Human CatG; share of binding energy) was 44.4%, the ΔGNON-IONIC (Human CatG; share of binding energy) was 55.6% and the “aPTT (EC2X)” value (human plasma; concentration required to double the aPTT of pooled human plasma) was over 1000 µM. For the same molecule, the “effect on aPTT clotting time” value (human plasma; human plasma, concentration as high as 1 mM) was “did not impact; also recorded: did not extend”, the IC50 (factor Xa) was over 150000 nM and the IC50 (factor XIa) was over 150000 nM. The IC50 (factor IXa) was over 150000 nM, the IC50 (factor XIIa) was over 150000 nM and the IC50 [1] was about 230 nM.
